Drawing on ChEMBL document CHEMBL2375291, “Discovery of a series of novel 5H-pyrrolo[2,3-b]pyrazine-2-phenyl ethers, as potent JAK3 kinase inhibitors” (Bioorg Med Chem Lett, 2013), this text covers IC50 for 16 compounds.

pIC50: −log10 of the molar value.

As usually defined, the pIC50 is the IC50 on a negative log10 scale, so that one unit is a factor of ten.

Assay [1] deals with Tyrosine-protein kinase JAK1 (Homo sapiens, UniProt P23458).
The target in assay [2] is T1, Tyrosine-protein kinase JAK3 (Homo sapiens, UniProt P52333).
T1 sequence (P52333 whole entry): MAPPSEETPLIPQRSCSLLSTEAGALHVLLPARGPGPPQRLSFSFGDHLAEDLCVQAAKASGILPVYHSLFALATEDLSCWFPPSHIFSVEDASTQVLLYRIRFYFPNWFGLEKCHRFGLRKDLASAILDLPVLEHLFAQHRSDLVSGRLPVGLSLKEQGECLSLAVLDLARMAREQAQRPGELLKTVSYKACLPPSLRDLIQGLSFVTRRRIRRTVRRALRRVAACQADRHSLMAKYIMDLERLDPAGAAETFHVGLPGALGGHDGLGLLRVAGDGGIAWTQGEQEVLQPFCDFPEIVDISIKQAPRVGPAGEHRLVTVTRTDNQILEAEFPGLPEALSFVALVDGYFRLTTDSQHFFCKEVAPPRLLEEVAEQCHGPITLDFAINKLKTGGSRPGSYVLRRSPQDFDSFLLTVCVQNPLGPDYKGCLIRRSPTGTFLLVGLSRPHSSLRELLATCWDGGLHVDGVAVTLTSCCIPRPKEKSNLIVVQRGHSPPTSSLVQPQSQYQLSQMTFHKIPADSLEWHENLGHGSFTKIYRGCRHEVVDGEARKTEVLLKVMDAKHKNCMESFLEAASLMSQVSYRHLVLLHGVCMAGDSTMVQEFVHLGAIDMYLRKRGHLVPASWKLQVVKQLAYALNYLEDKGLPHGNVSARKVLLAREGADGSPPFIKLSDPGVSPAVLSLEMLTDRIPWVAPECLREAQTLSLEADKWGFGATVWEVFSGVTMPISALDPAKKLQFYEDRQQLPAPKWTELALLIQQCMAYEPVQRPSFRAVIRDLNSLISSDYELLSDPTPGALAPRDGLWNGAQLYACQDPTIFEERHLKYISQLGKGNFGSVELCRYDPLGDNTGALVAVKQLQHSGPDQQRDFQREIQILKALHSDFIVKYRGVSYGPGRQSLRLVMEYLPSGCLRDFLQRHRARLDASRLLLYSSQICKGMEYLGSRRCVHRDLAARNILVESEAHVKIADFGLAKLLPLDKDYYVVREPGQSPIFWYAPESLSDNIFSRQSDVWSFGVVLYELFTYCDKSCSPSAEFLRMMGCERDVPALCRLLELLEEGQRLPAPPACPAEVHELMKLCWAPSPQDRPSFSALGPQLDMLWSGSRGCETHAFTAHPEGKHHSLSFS

The compound `Cc1ccccc1Oc1cnc2[nH]cc(C(=O)NC(C)C)c2n1` had a pIC50 in assay [1] of 5.29. Compound `CC(=O)N[C@@H]1CCc2ccc(Oc3cnc4[nH]cc(C(=O)N[C@@H](C)C5CC5)c4n3)cc21` had a pIC50 in assay [1] of 6.06. Consider `CC(C)NC(=O)c1c[nH]c2ncc(Oc3ccc(C#N)cc3)nc12`, for which the pIC50 in assay [1] is 5.46.

In assay [1], `CC(=O)N[C@@H]1CCc2ccc(Oc3cnc4[nH]cc(C(=O)N[C@@H](C(=O)N5CC(C#N)C5)C(C)(C)C)c4n3)cc21` gave a pIC50 of 6.06.

Turning to `CC(C)NC(=O)c1c[nH]c2ncc(Oc3ccccc3)nc12`, the pIC50 in assay [1] is 6.08. For the compound `CC(=O)N[C@@H]1CCc2ccc(Oc3cnc4[nH]cc(C(=O)N[C@@H](C(=O)N5CC(C#N)C5)C5CC5)c4n3)cc21`, the pIC50 in assay [1] is 6.58; in assay [2] it was 8.30. In assay [1], `Cc1cccc(Oc2cnc3[nH]cc(C(=O)NC(C)C)c3n2)c1` had a pIC50 of 5.67. On the same count and under the same terms, next, `CC(=O)N[C@@H]1CCc2ccc(Oc3cnc4[nH]cc(C(=O)NC(C)C)c4n3)cc21`: 5.20; `CC(=O)N[C@@H]1CCc2ccc(Oc3cnc4[nH]cc(C(=O)N[C@H](C)C5CC5)c4n3)cc21`: 5.68.

`CC(NC(=O)c1c[nH]c2ncc(Oc3ccccc3)nc12)C1CC1` (stereo not drawn) had a pIC50 in assay [1] of 6.66. On the same count and under the same terms, the result for `CC(=O)N[C@H]1CCc2ccc(Oc3cnc4[nH]cc(C(=O)NC(C)C)c4n3)cc21` reads 5.36; that for `CCc1cccc(Oc2cnc3[nH]cc(C(=O)NC(C)C)c3n2)c1`, 5.38.

The compound `CC(C)NC(=O)c1c[nH]c2ncc(Oc3cccc(C#N)c3)nc12` had a pIC50 in assay [1] of 5.50. Turning to `CC(=O)N[C@@H]1CCc2ccc(Oc3cnc4[nH]cc(C(=O)N[C@H](C)C(=O)N5CC(C#N)C5)c4n3)cc21`, the pIC50 in assay [1] was 4.94; in assay [2], 6.95. In the case of `CC(C)NC(=O)c1c[nH]c2ncc(Oc3ccc4c(c3)CCC4)nc12`, the pIC50 in assay [1] was 5.48. Still for that read-out and setting: the result for `COc1cc(OC)cc(Oc2cnc3[nH]cc(C(=O)NC(C)C)c3n2)c1` reads 5.09.
